Laboratory results published in ChEMBL document CHEMBL4630907 (2021).
The source made the active and inactive calls. The rule behind the calls is not given here.

What was measured:
Peregrin = Peregrin (Homo sapiens, UniProt P55201); test: BRPF1 DiscoverX BROMOscan
[1] = molecular target: 5-hydroxytryptamine receptor 2C (Homo sapiens) (UniProt P28335); conditions: Compound concentration 10.0 uM
[2] = molecular target: Bromodomain-containing protein 9 (Homo sapiens, UniProt Q9H8M2); test: BRD9 DiscoverX BROMOscan
[3] = molecular target: Bromodomain adjacent to zinc finger domain protein 2B (Homo sapiens, UniProt Q9UIF8); test: BAZ2B DiscoverX BROMOscan
[4] = molecular target: Muscarinic acetylcholine receptor M2 (Homo sapiens) (UniProt P08172); conditions: Compound concentration 10.0 uM
[5] = molecular target: Bromodomain-containing protein 3 (Homo sapiens, UniProt Q15059); test: BRD3 Bromoscan (DiscoverX)
[6] = molecular target: Beta-2 adrenergic receptor (Homo sapiens, UniProt P07550); conditions: Compound concentration 10.0 uM
[7] = molecular target: Bromodomain-containing protein 1 (Homo sapiens, UniProt O95696); test: BRD1 DiscoverX BROMOscan
Histamine H1 receptor = Histamine H1 receptor (Homo sapiens, UniProt P35367); test: (§1) Cross screening panel
[8] = molecular target: T1, Sodium-dependent noradrenaline transporter (Homo sapiens, UniProt P23975); test: as §1
[9] = molecular target: Voltage-dependent L-type calcium channel subunit alpha-1C (Homo sapiens, UniProt Q13936); test: as §1
Aurora kinase B = Aurora kinase B (Homo sapiens, UniProt Q96GD4); test: as §1
[10] = molecular target: Voltage-gated inwardly rectifying potassium channel KCNH2 (Homo sapiens, UniProt Q12809); test: as §1
[11] = molecular target: T2, 5-hydroxytryptamine receptor 3A (Homo sapiens, UniProt P46098); test: as §1
T2 sequence (P46098 whole entry): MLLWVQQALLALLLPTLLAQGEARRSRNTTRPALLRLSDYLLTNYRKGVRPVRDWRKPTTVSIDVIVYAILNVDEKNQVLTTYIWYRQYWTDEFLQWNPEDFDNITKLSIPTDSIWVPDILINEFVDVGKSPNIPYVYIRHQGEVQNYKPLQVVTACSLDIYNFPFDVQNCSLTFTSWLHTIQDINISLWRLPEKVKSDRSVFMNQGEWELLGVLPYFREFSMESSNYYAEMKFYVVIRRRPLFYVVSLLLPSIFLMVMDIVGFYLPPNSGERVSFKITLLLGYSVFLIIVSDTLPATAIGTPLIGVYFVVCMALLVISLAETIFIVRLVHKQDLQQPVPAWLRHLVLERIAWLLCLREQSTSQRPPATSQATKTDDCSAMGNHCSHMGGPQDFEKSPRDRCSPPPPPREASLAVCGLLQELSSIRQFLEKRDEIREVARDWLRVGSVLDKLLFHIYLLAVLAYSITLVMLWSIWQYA

[12] = molecular target: Nuclear receptor subfamily 1 group I member 2 (Homo sapiens, UniProt O75469); test: as §1
[13] = molecular target: Muscarinic acetylcholine receptor M1 (Homo sapiens, UniProt P11229); test: as §1
Acetylcholinesterase = Acetylcholinesterase (Homo sapiens, UniProt P22303); test: as §1
[14] = molecular target: Kappa-type opioid receptor (Homo sapiens, UniProt P41145); test: as §1
[15] = molecular target: Alpha-1B adrenergic receptor (Homo sapiens, UniProt P35368); test: as §1
[16] = molecular target: Tyrosine-protein kinase Lck (Homo sapiens, UniProt P06239); test: as §1
Substance-P receptor = Substance-P receptor (Homo sapiens, UniProt P25103); test: as §1
[17] = molecular target: Prostaglandin G/H synthase 2 (Homo sapiens, UniProt P35354); test: as §1
[18] = molecular target: Amine oxidase [flavin-containing] B (Homo sapiens, UniProt P27338); test: as §1
Cannabinoid receptor 2 = Cannabinoid receptor 2 (Homo sapiens, UniProt P34972); test: as §1
[19] = molecular target: Muscarinic acetylcholine receptor M2 (Homo sapiens, UniProt P08172); test: as §1
Vasopressin V1a receptor = Vasopressin V1a receptor (Homo sapiens, UniProt P37288); test: as §1
D(2) dopamine receptor = D(2) dopamine receptor (Homo sapiens, UniProt P14416); conditions: Compound concentration 10.0 uM
[20] = molecular target: T1, Sodium-dependent noradrenaline transporter; conditions: Compound concentration 10.0 uM
[21] = molecular target: Beta-3 adrenergic receptor (Homo sapiens) (UniProt P13945); conditions: Compound concentration 10.0 uM
[22] = molecular target: Transcription intermediary factor 1-alpha (Homo sapiens, UniProt O15164); test: TRIM24(BROMO.) DiscoverX BROMOscan

Sequence of Muscarinic acetylcholine receptor M2 (P08172 whole entry): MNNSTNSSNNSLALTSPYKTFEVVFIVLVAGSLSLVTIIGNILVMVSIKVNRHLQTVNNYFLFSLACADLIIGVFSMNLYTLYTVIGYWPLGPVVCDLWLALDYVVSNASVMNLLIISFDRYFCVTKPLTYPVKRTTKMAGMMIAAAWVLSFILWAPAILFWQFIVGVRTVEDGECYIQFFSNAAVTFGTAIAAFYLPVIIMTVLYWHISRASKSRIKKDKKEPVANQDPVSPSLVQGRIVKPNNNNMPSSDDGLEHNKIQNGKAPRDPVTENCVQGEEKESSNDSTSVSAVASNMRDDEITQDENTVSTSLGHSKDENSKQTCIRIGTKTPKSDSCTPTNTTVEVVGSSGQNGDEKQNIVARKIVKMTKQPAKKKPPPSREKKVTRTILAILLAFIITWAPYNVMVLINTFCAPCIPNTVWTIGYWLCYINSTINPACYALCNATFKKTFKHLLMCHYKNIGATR
T1 sequence (P23975 whole entry): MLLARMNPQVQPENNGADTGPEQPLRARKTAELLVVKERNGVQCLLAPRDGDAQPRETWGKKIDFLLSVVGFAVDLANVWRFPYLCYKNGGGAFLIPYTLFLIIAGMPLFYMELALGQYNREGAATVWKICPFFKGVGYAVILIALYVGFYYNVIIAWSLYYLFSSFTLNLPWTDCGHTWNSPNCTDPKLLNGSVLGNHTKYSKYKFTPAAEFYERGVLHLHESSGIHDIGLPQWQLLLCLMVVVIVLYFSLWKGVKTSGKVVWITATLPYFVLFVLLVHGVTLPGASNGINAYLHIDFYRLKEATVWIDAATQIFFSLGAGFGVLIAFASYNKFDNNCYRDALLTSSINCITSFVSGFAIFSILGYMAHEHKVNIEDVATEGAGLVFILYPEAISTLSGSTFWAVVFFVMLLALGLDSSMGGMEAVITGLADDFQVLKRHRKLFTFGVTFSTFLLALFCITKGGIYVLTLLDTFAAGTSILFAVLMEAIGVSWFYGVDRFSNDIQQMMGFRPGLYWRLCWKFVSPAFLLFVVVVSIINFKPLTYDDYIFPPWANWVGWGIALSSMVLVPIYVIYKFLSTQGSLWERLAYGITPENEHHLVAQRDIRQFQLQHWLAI
Sequence of Kappa-type opioid receptor (P41145 whole entry): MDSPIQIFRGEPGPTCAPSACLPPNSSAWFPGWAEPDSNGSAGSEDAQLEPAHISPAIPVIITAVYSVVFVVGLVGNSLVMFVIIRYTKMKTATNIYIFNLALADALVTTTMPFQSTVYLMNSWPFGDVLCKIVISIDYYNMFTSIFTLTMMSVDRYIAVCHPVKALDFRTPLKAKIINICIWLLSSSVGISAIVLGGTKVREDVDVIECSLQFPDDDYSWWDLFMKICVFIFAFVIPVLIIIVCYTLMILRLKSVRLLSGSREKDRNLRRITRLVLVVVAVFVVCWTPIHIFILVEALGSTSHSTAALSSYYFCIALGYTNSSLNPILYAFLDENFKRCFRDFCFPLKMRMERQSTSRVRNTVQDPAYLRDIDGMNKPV
Sequence of Muscarinic acetylcholine receptor M1 (P11229 whole entry): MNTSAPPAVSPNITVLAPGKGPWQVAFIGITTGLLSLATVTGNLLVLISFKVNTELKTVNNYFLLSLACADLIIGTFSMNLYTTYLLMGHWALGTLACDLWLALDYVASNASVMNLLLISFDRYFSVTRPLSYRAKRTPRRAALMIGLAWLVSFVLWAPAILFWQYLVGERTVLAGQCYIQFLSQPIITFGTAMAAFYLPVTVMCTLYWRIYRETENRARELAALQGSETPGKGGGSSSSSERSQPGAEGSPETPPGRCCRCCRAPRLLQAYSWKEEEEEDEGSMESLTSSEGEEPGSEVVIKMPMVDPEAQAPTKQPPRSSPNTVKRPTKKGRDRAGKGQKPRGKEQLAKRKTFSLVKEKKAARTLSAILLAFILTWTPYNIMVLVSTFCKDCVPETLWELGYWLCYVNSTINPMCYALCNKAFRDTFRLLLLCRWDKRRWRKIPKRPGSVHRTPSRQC
Sequence of Muscarinic acetylcholine receptor M2 (Homo sapiens) (P08172 whole entry): as the sequence (P08172 whole entry) above
Sequence of Substance-P receptor (P25103 whole entry): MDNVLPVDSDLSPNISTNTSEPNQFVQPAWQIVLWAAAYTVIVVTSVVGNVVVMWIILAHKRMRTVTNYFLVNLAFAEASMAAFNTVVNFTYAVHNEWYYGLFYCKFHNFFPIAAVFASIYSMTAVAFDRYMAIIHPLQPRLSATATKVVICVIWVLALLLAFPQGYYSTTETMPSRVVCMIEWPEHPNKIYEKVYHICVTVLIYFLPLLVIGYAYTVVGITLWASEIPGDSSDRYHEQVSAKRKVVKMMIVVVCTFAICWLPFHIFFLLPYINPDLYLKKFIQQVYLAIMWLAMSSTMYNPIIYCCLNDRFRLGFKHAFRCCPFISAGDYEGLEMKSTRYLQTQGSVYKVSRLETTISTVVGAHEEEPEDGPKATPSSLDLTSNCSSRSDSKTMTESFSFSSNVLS
Sequence of Bromodomain adjacent to zinc finger domain protein 2B (Q9UIF8 whole entry, the tested form may be a part): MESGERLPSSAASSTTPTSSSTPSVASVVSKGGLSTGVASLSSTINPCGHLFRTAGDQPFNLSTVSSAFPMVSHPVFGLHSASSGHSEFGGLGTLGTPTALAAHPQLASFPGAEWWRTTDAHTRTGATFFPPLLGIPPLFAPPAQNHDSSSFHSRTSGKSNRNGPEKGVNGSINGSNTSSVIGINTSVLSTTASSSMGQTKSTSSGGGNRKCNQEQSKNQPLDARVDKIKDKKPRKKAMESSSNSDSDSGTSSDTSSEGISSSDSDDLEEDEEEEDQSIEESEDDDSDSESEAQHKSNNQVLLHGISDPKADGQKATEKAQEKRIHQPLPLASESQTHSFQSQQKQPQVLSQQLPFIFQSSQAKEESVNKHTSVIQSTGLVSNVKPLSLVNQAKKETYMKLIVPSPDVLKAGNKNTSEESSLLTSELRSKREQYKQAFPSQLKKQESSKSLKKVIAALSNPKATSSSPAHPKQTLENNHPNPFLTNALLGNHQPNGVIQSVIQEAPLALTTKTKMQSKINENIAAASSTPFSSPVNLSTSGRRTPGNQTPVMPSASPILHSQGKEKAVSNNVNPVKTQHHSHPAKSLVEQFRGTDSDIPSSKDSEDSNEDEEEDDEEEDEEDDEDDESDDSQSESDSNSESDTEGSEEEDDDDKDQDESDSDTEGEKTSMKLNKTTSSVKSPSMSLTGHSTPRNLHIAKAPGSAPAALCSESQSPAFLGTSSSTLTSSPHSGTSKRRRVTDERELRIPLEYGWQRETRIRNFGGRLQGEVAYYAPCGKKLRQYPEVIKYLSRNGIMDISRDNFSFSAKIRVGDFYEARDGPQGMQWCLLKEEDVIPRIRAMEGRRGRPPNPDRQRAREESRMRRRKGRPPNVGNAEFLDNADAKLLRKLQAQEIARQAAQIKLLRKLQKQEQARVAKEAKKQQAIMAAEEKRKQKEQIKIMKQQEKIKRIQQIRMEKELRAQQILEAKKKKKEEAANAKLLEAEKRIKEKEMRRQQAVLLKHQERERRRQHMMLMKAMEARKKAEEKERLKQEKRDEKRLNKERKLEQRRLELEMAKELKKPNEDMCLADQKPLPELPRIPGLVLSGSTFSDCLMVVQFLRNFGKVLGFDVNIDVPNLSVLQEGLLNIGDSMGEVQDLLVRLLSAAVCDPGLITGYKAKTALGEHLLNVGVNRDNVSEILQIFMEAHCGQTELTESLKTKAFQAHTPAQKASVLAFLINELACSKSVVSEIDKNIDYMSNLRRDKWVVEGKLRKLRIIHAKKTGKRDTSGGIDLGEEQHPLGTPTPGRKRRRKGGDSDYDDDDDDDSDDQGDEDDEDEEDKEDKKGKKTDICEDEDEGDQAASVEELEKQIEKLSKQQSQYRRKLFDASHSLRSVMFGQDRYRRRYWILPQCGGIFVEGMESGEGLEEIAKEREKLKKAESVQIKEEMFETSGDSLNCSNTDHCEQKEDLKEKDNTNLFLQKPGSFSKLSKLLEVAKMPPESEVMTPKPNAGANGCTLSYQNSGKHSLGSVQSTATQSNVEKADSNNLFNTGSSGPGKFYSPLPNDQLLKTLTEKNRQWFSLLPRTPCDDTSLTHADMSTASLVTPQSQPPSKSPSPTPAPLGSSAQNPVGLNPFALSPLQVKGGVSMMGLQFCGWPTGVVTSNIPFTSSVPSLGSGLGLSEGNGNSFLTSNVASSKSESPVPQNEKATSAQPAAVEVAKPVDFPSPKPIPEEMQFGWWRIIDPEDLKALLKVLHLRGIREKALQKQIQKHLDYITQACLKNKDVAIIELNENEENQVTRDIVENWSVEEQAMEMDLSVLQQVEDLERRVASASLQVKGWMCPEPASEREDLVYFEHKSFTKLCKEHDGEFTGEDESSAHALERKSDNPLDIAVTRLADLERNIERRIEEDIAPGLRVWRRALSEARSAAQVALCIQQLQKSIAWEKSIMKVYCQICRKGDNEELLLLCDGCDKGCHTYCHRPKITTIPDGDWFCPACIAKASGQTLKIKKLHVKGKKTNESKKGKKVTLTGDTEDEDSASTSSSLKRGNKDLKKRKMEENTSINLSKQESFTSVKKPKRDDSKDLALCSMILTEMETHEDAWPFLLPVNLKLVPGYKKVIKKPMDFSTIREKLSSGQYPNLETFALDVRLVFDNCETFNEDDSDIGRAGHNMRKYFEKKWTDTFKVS
Sequence of 5-hydroxytryptamine receptor 2C (Homo sapiens) (P28335 whole entry): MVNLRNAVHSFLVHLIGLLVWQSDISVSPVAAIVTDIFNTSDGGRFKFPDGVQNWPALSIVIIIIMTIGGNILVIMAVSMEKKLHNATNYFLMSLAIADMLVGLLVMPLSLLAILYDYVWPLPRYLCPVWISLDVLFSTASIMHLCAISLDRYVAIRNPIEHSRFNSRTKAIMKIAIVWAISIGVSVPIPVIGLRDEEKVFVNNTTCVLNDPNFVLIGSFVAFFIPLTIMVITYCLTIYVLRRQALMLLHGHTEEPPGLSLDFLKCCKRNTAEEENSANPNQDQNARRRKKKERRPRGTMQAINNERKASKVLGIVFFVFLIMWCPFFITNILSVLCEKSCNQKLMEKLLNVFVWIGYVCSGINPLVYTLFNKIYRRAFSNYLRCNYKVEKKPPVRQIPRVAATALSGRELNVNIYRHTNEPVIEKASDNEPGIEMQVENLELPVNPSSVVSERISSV

**Q.** For `COCc1nc2cnc3cc(-c4c(C)noc4C)c(OC[C@H]4CCNC4)cc3c2n1[C@H](C)c1ccccc1` [GSK778], which Kd (Peregrin) is on record?
**A.** 15 µM

**Q.** And the inhibition [1]?
**A.** -0.02%

**Q.** And the Kd [2]?
**A.** 30 µM

**Q.** What about the Kd [3] of the same compound?
**A.** 30 µM

**Q.** What about the inhibition [4] of the same compound?
**A.** 4.05%

**Q.** What about the Kd [5] of the same compound?
**A.** 0.005 µM (active)

**Q.** What about the inhibition [6] of the same compound?
**A.** 18.4%

**Q.** And the Kd [7]?
**A.** 30 µM

**Q.** And the IC50 (Histamine H1 receptor)?
**A.** > 25.1 µM

**Q.** What about the IC50 [8] of the same compound?
**A.** 20 µM

**Q.** What about the IC50 [9] of the same compound?
**A.** > 100 µM

**Q.** And the IC50 (Aurora kinase B)?
**A.** > 31.6 µM

**Q.** And the IC50 [10]?
**A.** 39.8 µM

**Q.** And the EC50 [11]?
**A.** > 50.1 µM

**Q.** And the IC50 [11]?
**A.** > 50.1 µM

**Q.** And the EC50 [12]?
**A.** > 50.1 µM

**Q.** And the EC50 [13]?
**A.** > 50.1 µM

**Q.** And the IC50 [13]?
**A.** > 50.1 µM

**Q.** What about the IC50 (Acetylcholinesterase) of the same compound?
**A.** 63.1 µM

**Q.** And the EC50 [14]?
**A.** > 100 µM

**Q.** And the IC50 [14]?
**A.** > 100 µM

**Q.** What about the IC50 [15] of the same compound?
**A.** > 25.1 µM

**Q.** And the IC50 [16]?
**A.** > 31.6 µM

**Q.** And the IC50 (Substance-P receptor)?
**A.** > 25.1 µM

**Q.** And the IC50 [17]?
**A.** > 100 µM

**Q.** What about the IC50 [18] of the same compound?
**A.** 79.4 µM

**Q.** What about the EC50 (Cannabinoid receptor 2) of the same compound?
**A.** > 100 µM

**Q.** What about the EC50 [19] of the same compound?
**A.** > 50.1 µM

**Q.** What about the IC50 [19] of the same compound?
**A.** 10 µM

**Q.** And the IC50 (Vasopressin V1a receptor)?
**A.** > 50.1 µM

**Q.** What about the inhibition (D(2) dopamine receptor) of the same compound?
**A.** 27.7%

**Q.** What about the inhibition [20] of the same compound?
**A.** 34.5%

**Q.** What about the inhibition [21] of the same compound?
**A.** 10.5%

**Q.** And the Kd [22]?
**A.** 30 µM
